# Results: patent US20150322051A1, “Macrocyclic picolinamides as fungicides” (Dow AgroSciences LLC, priority 2014, published 2015)
# Like-named read-outs stand apart in the source and are kept apart here.
# Columns and labels:
# Format in all cases: in vivo
# [1] = test system: Leptosphaeria nodorum (LEPTNO); test: Wheat glume blotch (LEPTNO) whole-plant fungicidal test; conditions: 1 Day Protectant
# [2] = test system: Puccinia triticina; synonym: Puccinia recondita f. sp. tritici (PUCCRT); test: Wheat brown rust (PUCCRT) whole-plant fungicidal test; conditions: topical, low volume (track spray) application, 121.5 g/H
# [3] = test system: Erysiphe cichoracearum (ERYSCI); test: Powdery mildew of cucumber (ERYSCI) whole-plant fungicidal test; conditions: 1 Day Protectant
# [4] = test system: Blumeria graminis f. sp. hordei; synonym: Erysiphe graminis f. sp. hordei (ERYSGH); test: Barley powdery mildew (ERYSGH) whole-plant fungicidal test; conditions: 1 Day Protectant
# Method: All fungicides were evaluated using the aforementioned method for their activity vs. all target diseases, unless stated otherwise. Wheat leaf blotch and brown rust activity were also evaluated using track spray applications, in which case the fungicides were formulated as EC formulations, containing 0.1% Trycol 5941 in the spray solutions. Wheat plants (variety Yuma) were grown from seed in a greenhouse in 50% mineral soil/50% soil-less Metro mix until the first leaf was fully emerged, with 7-10 seedlings per pot. These plants were inoculated with an aqueous spore suspension of Septoria tritici either prior to or after fungicide treatments. After inoculation the plants were kept in 100% relative humidity (one day in a dark dew chamber followed by two to three days in a lighted dew chamber at 20° C.) to permit spores to germinate and infect the leaf. The plants were then transferred to a greenhouse set at 20° C. for disease to develop. When disease symptoms were fully expressed on the 1st leaves of untreated plants, infection levels were assessed on a scale of 0 to 100 percent disease severity. Percent disease control was calculated using the ratio of disease severity on treated plants relative to untreated plants. Barley seedlings (variety Harrington) were propagated in soil-less Metro mix, with each pot having 8 to 12 plants, and used in the test when first leaf was fully emerged. […]
# [5] = test system: Mycosphaerella graminicola; anamorph: Septoria tritici (SEPTTR); test: Leaf blotch of wheat (SEPTTR) whole-plant fungicidal test; conditions: Zymoseptoria tritici, topical, low volume (track spray) application, 121.5 g/H
smiles,measurement,setting,value
CCCC[C@@H]1[C@@H](Cc2ccc(C(F)(F)F)cc2)CCC[C@H](NC(=O)c2nccc(OC)c2OCOC(C)=O)C(=O)O[C@H]1C [Compound 3],Disease Control at 100 ppm LEPTNO 1DP,[1],A (>70)
same,pest or weed control at 121.5 g/ha,"[2]; 24 h, 1 Day Protectant, read-out: Low Volume activity at 121.5 g/H PUCCRT 1DP (% disease control rating)",> 70%
same,pest or weed control at 121.5 g/ha,"[2]; 72 h, 3 Day Curative, read-out: Low Volume activity at 121.5 g/H PUCCRT 3DC (% disease control rating)",< 70%
same,Disease Control at 100 ppm ERYSCI 1DP,[3],A (>70)
same,Disease Control at 100 ppm ERYSGH 1DP,[4],A (>70)
same,pest or weed control at 121.5 g/ha,"[5]; 24 h, 1 Day Protectant, read-out: Low Volume activity at 121.5 g/H SEPTTR 1DP (% disease control rating)",> 70%
same,pest or weed control at 121.5 g/ha,"[5]; 72 h, 3 Day Curative, read-out: Low Volume activity at 121.5 g/H SEPTTR 3DC (% disease control rating)",> 70%
